Source: patent US20250188068A1, “AMIDO CYCLOPROPYL DERIVATIVES AS LPA RECEPTOR INHIBITORS” (CHIESI FARMACEUTICI S.P.A., priority 2022, published 2025)

Target: T1, human recombinant LPA1 expressed in CHO cells (Homo sapiens, UniProt Q92633)
T1 construct: expressed in transfected cells; host or cells: CHO cells (CHO-hLPA1 cell line)
Assay: FLIPR calcium mobilization assay, LPA1 antagonism in CHO-hLPA1 cells
Format: cell-based
Conditions: inhibition of LPA EC80 Ca2+ response, 30 min pre-incubation, range of activity
Protocol: The effectiveness of compounds of the present invention as LPA1 antagonist can be determined at the human recombinant LPA1 expressed in CHO cells, using a FLIPR assay in 384 well format.
CHO-hLPA1 cell lines are cultured in a humidified incubator at 5% CO2 in DMEM/F-12 (1:1) MIXTURE with 2 mM Glutamax, supplemented with 10% of Foetal Bovine Serum, 1 mM Sodium Pyruvate, 11 mM Hepes and 1× Penicillin/Streptomycin. CHO hLPA1 cells are seeded into black walled clear-bottom 384-well plates (#781091, Greiner Bio-One GmbH) at a density of 7,500 cells per well in 50 μl culture media and grown overnight in a 37° C. humidified CO2-incubator. Serial dilutions (1:3 or 1:4, 11 points CRC) of compounds are performed in 100% DMSO at 200× the final concentration. The compounds are diluted 1:50 prior to the experiment with Assay Buffer (20 mM HEPES, 145 mM NaCl, 5 mM KCl, 5.5 mM glucose, 1 mM MgCl2 and 2 mM CaCl2), pH 7.4 containing 0.01% Pluronic F-127) to obtain a solution corresponding to […] the final concentration in the assay (4×, 2% DMSO). The final concentration of DMSO in the assay will be 0.5% in each well. Medium is removed by aspiration and cells are then incubated with 30 μl of a loading solution containing 5 μM of the cytoplasmic Ca2+ indicator Cal-520 AM in Assay Buffer containing 2.5 mM probenecid for 30 min at 37° C. incubator (cell loading). The loaded cell plates are transferred into the FLIPR instrument and calcium responses are monitored during the on-line addition protocols. For testing of compounds, after the cell loading, 10 μl/well of 4× antagonists' solution was added onto the cells. After 30 min pre-incubation (at 37° C.), 10 μl/well of 5× concentrated LPA EC80 was added and Ca2+ mobilization responses was followed during the on-line addition protocol. Intracellular peak fluorescence values subtracted by baseline fluorescence are exported and analysed to determine IC50 values, respectively. The calcium response is expressed as percentage of the maximal inhibition of the EC80 agonist response.
The raw data obtained in unstimulated controls (DMSO, no LPA) are set as “100% inhibition”, while the raw data obtained in negative controls, i.e. in the absence of compounds and stimulating with LPA EC80, are set as “0% inhibition”.
The raw data (peak height expressed as relative fluorescence units) are normalized and transformed into “percent of inhibition”. Curve fitting and pIC50 (−Log IC50) estimations are carried out using a four-parameter logistic model using XLfit Software.

T1 sequence (Q92633 whole entry): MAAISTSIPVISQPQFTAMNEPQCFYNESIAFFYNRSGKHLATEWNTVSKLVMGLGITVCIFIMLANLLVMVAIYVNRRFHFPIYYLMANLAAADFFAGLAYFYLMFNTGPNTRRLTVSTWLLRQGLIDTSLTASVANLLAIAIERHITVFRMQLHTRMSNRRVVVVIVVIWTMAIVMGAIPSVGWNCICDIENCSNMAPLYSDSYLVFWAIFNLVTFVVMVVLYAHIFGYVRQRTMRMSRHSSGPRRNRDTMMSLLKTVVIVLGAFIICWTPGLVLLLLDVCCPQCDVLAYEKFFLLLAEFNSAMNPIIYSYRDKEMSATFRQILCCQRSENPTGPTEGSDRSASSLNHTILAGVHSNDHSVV

For `Cc1noc(-c2ccc(NC(=O)C3C(c4nnn[nH]4)C3(F)F)cc2)c1NC(=O)O[C@H](C)c1ccccc1Cl` (mixture of isomers) [Compound 13, (R)-1-(2-chlorophenyl)ethyl (5-(4-(2,2-difluoro-3-(1H-tetrazol-5-yl)cyclopropane-1-carboxamido)phenyl)-3-methylisoxazol-4-yl)carbamate, mix of Trans diastereomers], the IC50 was < 50 nM.

For `Cc1nc(-c2onc(C)c2NC(=O)O[C@H](C)c2ccccc2Cl)ccc1NC(=O)C1C(c2nnn[nH]2)C1(F)F` (mixture of isomers) [Compound 14, (R)-1-(2-chlorophenyl)ethyl (5-(5-(2,2-difluoro-3-(1H-tetrazol-5-yl)cyclopropane-1-carboxamido)-6-methylpyridin-2-y1)-3-methylisoxazol-4-yl)carbamate, mix of Trans diastereomers], the IC50 was < 50 nM.

An IC50 of 50 to 100 nM was found for `Cc1nc(-c2onc(C)c2NC(=O)O[C@H](C)c2ccccc2Cl)ccc1CNC(=O)C1C(C(=O)O)C1(F)F` (mixture of isomers) [Compound 16, 3-(((6-(4-((((R)-1-(2-chlorophenyl)ethoxy)carbonyl)amino)-3-methylisoxazol-5-yl)-2-methylpyridin-3-yl)methyl)carbamoyl)-2,2-difluorocyclopropane-1-carboxylic acid, mix of Cis diastereomers] in this work.

In the case of `Cc1nc(-c2onc(C)c2NC(=O)O[C@H](C)c2ccccc2Cl)ccc1CNC(=O)C1C(C(=O)O)C1(F)F` (mixture of isomers) [Compound 17, 3-(((6-(4-((((R)-1-(2-chlorophenyl)ethoxy)carbonyl)amino)-3-methylisoxazol-5-yl)-2-methylpyridin-3-yl)methyl)carbamoyl)-2,2-difluorocyclopropane-1-carboxylic acid, mix of Trans diastereomers], the IC50 is reported as < 50 nM.

With `Cc1nc(-c2onc(C)c2CNc2nccc(C3CCCCC3)n2)ccc1NC(=O)[C@@H]1[C@@H](C(=O)O)C1(F)F` (racemic) [Compound 18, 3-((6-(4-(((4-cyclohexylpyrimidin-2-yl)amino)methyl)-3-methylisoxazol-5-yl)-2-methylpyridin-3-yl)carbamoyl)-2,2-difluorocyclopropane-1-carboxylic acid, mix of Trans diastereomers] the IC50 was < 50 nM.

An IC50 of 100 to 200 nM was found for `Cc1noc(-c2ccc(NC(=O)[C@@H]3[C@@H](C(=O)O)C3(F)F)cc2)c1COC(=O)N(C)C1CCCC1` (racemic) [Compound 36, 3-((4-(4-(((cyclopentyl(methyl)carbamoyl)oxy)methyl)-3-methylisoxazol-5-yl)phenyl)carbamoyl)-2,2-difluorocyclopropane-1-carboxylic acid, mix of Trans diastereomers] in this work.

`Cc1noc(-c2ccc(NC(=O)C3C(C(=O)O)C3(F)F)cn2)c1NC(=O)O[C@H](C)c1ccccc1Cl` (single isomer, unassigned) [Compound 5] was tested, and the IC50 was < 50 nM.

An IC50 of 100 to 200 nM was found for `Cc1noc(-c2ccc(N(C)C(=O)C3C(C(=O)O)C3(F)F)cc2)c1NC(=O)O[C@H](C)c1ccccc1Cl` (single isomer, unassigned) [Compound 8] in this work.

In the case of `Cc1nc(-c2nnn(C)c2NC(=O)O[C@H](C)c2ccccc2Cl)ccc1NC(=O)C1C(C(=O)O)C1(F)F` (single isomer, unassigned) [Compound 32], the IC50 is reported as < 50 nM.

In the case of `Cc1nc(-c2snc(C)c2NC(=O)O[C@H](C)c2ccccc2Cl)ccc1NC(=O)C1C(C(=O)O)C1(F)F` (single isomer, unassigned; diastereomer 1) [Compound 31], the IC50 is reported as < 50 nM.

An IC50 of 50 to 100 nM was found for `Cc1noc(-c2ccc(N(C)C(=O)C3C(C(=O)O)C3(F)F)cc2)c1NC(=O)O[C@H](C)c1ccccc1Cl` (single isomer, unassigned; diastereomer 2) [Compound 9] in this work.

In the case of `Cc1nc(-c2onc(C)c2Nc2cncc(OC(C)C)n2)ccc1NC(=O)C1C(C(=O)O)C1(F)F` (single isomer, unassigned; diastereomer 2) [Compound 11], the IC50 is reported as < 50 nM.

An IC50 of 100 to 200 nM was found for `Cc1nc(-c2sccc2NC(=O)O[C@H](C)c2ccccc2Cl)ccc1NC(=O)C1C(C(=O)O)C1(F)F` (single isomer, unassigned; diastereomer 2) [Compound 30] in this work.

For `Cc1nc(-c2onc(C)c2CNc2nccc(C3CCCCC3)n2)ccc1NC(=O)C1C(C(=O)O)C1(F)F` (single isomer, unassigned; enantiomer 1) [Compound 19, Single Enantiomer 1 of Trans-3-((6-(4-(((4-cyclohexylpyrimidin-2-yl)amino)methyl)-3-methylisoxazol-5-yl)-2-methylpyridin-3-yl)carbamoyl)-2,2-difluorocyclopropane-1-carboxylic acid], the IC50 was < 50 nM.

In the case of `Cc1nc(-c2onc(C)c2NC(=O)O[C@H](C)c2ccccc2Cl)ccc1NC(=O)[C@@H]1[C@@H](C(=O)O)C1(F)F` [Compound 1, (1S,3S)-3-((6-(4-((((R)-1-(2-chlorophenyl)ethoxy)carbonyl)amino)-3-methylisoxazol-5-yl)-2-methylpyridin-3-yl)carbamoyl)-2,2-difluorocyclopropane-1-carboxylic acid], the IC50 is reported as < 50 nM.

For `Cc1nc(-c2onc(C)c2NC(=O)O[C@H](C)c2ccccc2Cl)ccc1NC(=O)[C@H]1[C@H](C(=O)O)C1(F)F` [Compound 2, (1R,3R)-3-((6-(4-((((R)-1-(2-chlorophenyl)ethoxy)carbonyl)amino)-3-methylisoxazol-5-yl)-2-methylpyridin-3-yl)carbamoyl)-2,2-difluorocyclopropane-1-carboxylic acid], the IC50 was < 50 nM.

With `Cc1nc(-c2onc(C)c2NC(=O)O[C@H](C)c2ccccc2Cl)ccc1NC(=O)C1C(C(=O)O)C1(F)F` (stereo partly drawn) [Compound 4, 3-((6-(4-((((R)-1-(2-chlorophenyl)ethoxy)carbonyl)amino)-3-methylisoxazol-5-yl)-2-methylpyridin-3-yl)carbamoyl)-2,2-difluorocyclopropane-1-carboxylic acid] the IC50 was < 50 nM.

In the case of `Cc1nc(-c2onc(C)c2CNc2nccc(-c3ccsc3)n2)ccc1NC(=O)[C@@H]1[C@@H](C(=O)O)C1(F)F` [Compound 21, (1S,3S)-2,2-difluoro-3-((2-methyl-6-(3-methyl-4-(((4-(thiophen-3-yl)pyrimidin-2-yl)amino)methyl)isoxazol-5-yl)pyridin-3-yl)carbamoyl)cyclopropane-1-carboxylic acid], the IC50 is reported as < 50 nM.

An IC50 of 100 to 200 nM was found for `Cc1nc(-c2onc(C)c2CNc2nccc(-c3ccco3)n2)ccc1NC(=O)[C@@H]1[C@@H](C(=O)O)C1(F)F` [Compound 22, (1S,3S)-2,2-difluoro-3-((6-(4-(((4-(furan-2-yl)pyrimidin-2-yl)amino)methyl)-3-methylisoxazol-5-yl)-2-methylpyridin-3-yl)carbamoyl)cyclopropane-1-carboxylic acid] in this work.

`Cc1nc(-c2onc(C)c2CNc2nccc(-c3cnccn3)n2)ccc1NC(=O)[C@@H]1[C@@H](C(=O)O)C1(F)F` [Compound 23, (1S,3S)-2,2-difluoro-3-((2-methyl-6-(3-methyl-4-(((4-(pyrazin-2-yl)pyrimidin-2-yl)amino)methyl)isoxazol-5-yl)pyridin-3-yl)carbamoyl)cyclopropane-1-carboxylic acid] was tested, and the IC50 was < 50 nM.

`Cc1nc(-c2onc(C)c2CNc2nccc(-c3cccs3)n2)ccc1NC(=O)[C@@H]1[C@@H](C(=O)O)C1(F)F` [Compound 24, (1S,3S)-2,2-difluoro-3-((2-methyl-6-(3-methyl-4-(((4-(thiophen-2-yl)pyrimidin-2-yl)amino)methyl)isoxazol-5-yl)pyridin-3-yl)carbamoyl)cyclopropane-1-carboxylic acid] was tested, and the IC50 was < 50 nM.
